Several values for one entry are separate records, joined by “and”; a condition that tells them apart may be missing. Equal values may be shown once.
Columns and labels:
[1] = tested on: ALK-driven refractory or relapsed neuroblastoma; experiment: Functional imaging response: MIBG Curie score / FDG-PET avidity; format: in vivo, human; design: key to Symbol to indicate Soft tissue became MIBG non-avid: *: Symbol to indicate Soft tissue became MIBG non-avid; details: for complete resolution of MIBG avidity (CR) in bone and/or soft tissue: patients with BOR of SD/MR/PR
Excerpt: Patients underwent disease staging at baseline, after courses 2 and 4 and then every four courses thereafter. The primary endpoint for response analysis is the BOR, defined as the best response observed before progression or start of another therapy. […] Response was graded according to the NANT response criteria version 2.0 (ref. [26]), modified from the International Neuroblastoma Response Criteria (INRC)[48]. NANT response criteria use three components for assessment of overall response: soft tissue response assessed by anatomical imaging and avidity on MIBG or FDG-PET; bone response assessed by uptake in bone by MIBG or bone involvement on FDG-PET; and bone marrow response assessed by morphology on bilateral aspirates and biopsies. Each response component (soft tissue, bone and bone marrow) are graded as CR, PR, SD and PD. Overall response grading is defined as: CR, if a response of CR in all components that are involved at baseline; PR, if a response of PR or better in all involved components; MR, if a response of PR or better but with at least one involved component as SD and no PD in all involved components; SD, if a response of SD in all involved components; and PD, if a response of PD in at least one involved component. The overall response definitions are identical to overall responses (CR, PR, SD and PD) as defined by the INRC. Response assessment is initially performed by sites and reviewed against source documents by NANT operations. Additional blinded central review of all radiological or pathological data was conducted for patients with overall PR or better and, in addition, radiologic pathological data of all involved sites for patients with MR to assign the final BOR on this study. Response by MIBG was determined using the Curie criteria. RR was determined as the proportion of patients with BOR of CR and PR in each cohort. Based on an international consensus by the National Cancer Institute Clinical Trials Planning Committee to refine tumor site eligibility criteria and evaluation of disease response for early-phase clinical trials in children with high-risk recurrent, refractory and progressive neuroblastoma, we also performed an ad hoc analysis to determine a modified RR that includes the proportion of patients with BOR of CR, PR and MR.

[2] = adults with NSCLC; cited from earlier work

C[C@H]1Oc2cc(cnc2N)-c2c(nn(C)c2C#N)CN(C)C(=O)c2ccc(F)cc21 [Lorlatinib, (10R)-7-amino-12-fluoro-2,10,16-trimethyl-15-oxo-10,15,16,17-tetrahydro-2H-8,4-(metheno)pyrazolo[4,3-h][2,5,11]-benzoxadiazacyclotetradecine-3-carbonitrile]
responders achieving MIBG complete responses ([1]; 13 of 27 responders, all cohorts): 48% | MIBG Curie Score % change from baseline ([1]; Cohort A1, individual patient): -87% and -94% and -100% and 600% and 50% and 40% and 33% and -10% and -18% and -70% | Symbol to indicate Soft tissue became MIBG non-avid ([1]; Cohort A1, individual patient): * | MIBG Curie Score % change from baseline ([1]; Cohort A2, individual patient): -4.76% and -25% and -44% and -56% and -67% and -95% and -100% | Symbol to indicate Soft tissue became MIBG non-avid ([1]; Cohort A2, individual patient): * | MIBG Curie Score % change from baseline ([1]; Cohort B2, individual patient): 100% and 56% and 1% and -33% and -73% and -75% and -100% | Symbol to indicate Soft tissue became MIBG non-avid ([1]; Cohort B2, individual patient): * | Curie Score Percent Change ([1]; Patient ID 2): -100 | Minimum Curie ([1]; Patient ID 2, Enrollment Curie 5): 0 | Curie Score Percent Change ([1]; Patient ID 3): -94.44 | Minimum Curie ([1]; Patient ID 3, Enrollment Curie 18): 1 | Curie Score Percent Change ([1]; Patient ID 9): -10 | Minimum Curie ([1]; Patient ID 9, Enrollment Curie 10): 9 | Curie Score Percent Change ([1]; Patient ID 10): 50 | Minimum Curie ([1]; Patient ID 10, Enrollment Curie 4): 6 | Curie Score Percent Change ([1]; Patient ID 11): -100 | Minimum Curie ([1]; Patient ID 11, Enrollment Curie 1): 0 | Curie Score Percent Change ([1]; Patient ID 12): 33.33 | Minimum Curie ([1]; Patient ID 12, Enrollment Curie 6): 8 | Curie Score Percent Change ([1]; Patient ID 17): -86.66 | Minimum Curie ([1]; Patient ID 17, Enrollment Curie 15): 2 | Curie Score Percent Change ([1]; Patient ID 21): -100 | Minimum Curie ([1]; Patient ID 21, Enrollment Curie 3): 0 | Curie Score Percent Change ([1]; Patient ID 25): -100 | Minimum Curie ([1]; Patient ID 25, Enrollment Curie 2): 0 | Curie Score Percent Change ([1]; Patient ID 26): -18.18 | Minimum Curie ([1]; Patient ID 26, Enrollment Curie 11): 9 | Curie Score Percent Change ([1]; Patient ID 30): 40 | Minimum Curie ([1]; Patient ID 30, Enrollment Curie 5): 7 | Curie Score Percent Change ([1]; Patient ID 31): -100 | Minimum Curie ([1]; Patient ID 31, Enrollment Curie 3): 0 | Curie Score Percent Change ([1]; Patient ID 32): 600 | Minimum Curie ([1]; Patient ID 32, Enrollment Curie 2): 14 | Curie Score Percent Change ([1]; Patient ID 38): -100 | Minimum Curie ([1]; Patient ID 38, Enrollment Curie 3): 0 | Curie Score Percent Change ([1]; Patient ID 40): -70 | Minimum Curie ([1]; Patient ID 40, Enrollment Curie 10): 3 | complete resolution of MIBG avidity (CR) in bone and/or soft tissue ([1]; A1, five of eight): 63% | complete resolution of MIBG avidity (CR) in bone and/or soft tissue ([1]; A2, three of ten): 30% | complete resolution of MIBG avidity (CR) in bone and/or soft tissue ([1]; B2, one of four): 25% | complete resolution of metabolic activity in soft tissue lesions by MIBG/FDG-PET ([1]; ten of 22 patients with avid soft tissue lesions and BOR of SD/MR/PR): 45% | adult RP2D [2]: 100 mg per day

From publication PMC10202811 (Nature Medicine, 2023)
